Test results published in article PMC9845330 (Communications Biology, 2023).
Non-standard residues stand in square brackets, D forms with d. Residues, ends and D or L forms follow the SMILES beside them. *: point of attachment. X1 = O=C(CCCC[C@@H]1SC[C@@H]2NC(=O)N[C@@H]21)NCCCOCCOCCOCCCN*; PEG12 = NCCOCCOCCOCCOCCOCCOCCOCCOCCOCCOCCOCCOCCC(=O)O

Key:
[1] = system: H1299 xenograft tumor; assay: Tumor homing by near infrared imaging; assay type: in vivo, mouse
Description: Animal experiments were approved by SRI International’s Institutional Animal Care and Use committee (Animal Welfare Assurance Number A3025-01, protocol 14008). H2009 cells (10^6) or H1299 cells (10^6) were implanted subcutaneously on the flank of female Nu/Nu mice (Jackson Laboratory, Bar Harbor, ME). When tumors reached 100 mm^3, in vivo experiments were initiated. For imaging, the indicated peptides were conjugated directly to Alexa Fluor 750 near-infrared dye (Supplemental Fig. 1). Four animals per group were used. Peptides were injected into the lateral tail vein for a total dose 15 µgs/mouse delivered in 100 µL. At set period of times, animals were anesthetized and imaged on an IVIS® (Perkin Elmer). Regions of interest were drawn around the tumor and the total radiant efficiency was measured. For therapeutic experiments, we chose to use the H2009 tumor model as it has a higher tumor take rate and more consistent growth rate than the H1299 model. Biotinylated MGS4_V8 (N = 9) or MGS4_V6 (N = 8) were conjugated to streptavidin-saporin and administered via tail-vein injection (7.5 µg/100 µl) 2x/week for 2.5 weeks for a total of 5 treatments. Nontreated animals (N = 8) served as the control. Tumor size was measured with calipers every other day and volume was calculated as (π/6)(l*w)^3/2. Statistical analysis was performed on GraphPad Prism®.
Supplemental Figure 1. […]
-Qdot605, streptavidin-R- phycoerythrin, and streptavidin-saporin. b) For NIR imaging experiments, Alexa Fluor 750 was directly conjugated to the peptide by the reaction of maleimide modified dye with a thiol containing MGS4_V8 peptide. c ) The structure of the monomeric MGS4 used for serum stabilities. […]
Supplemental Figure 5. MGS4_V8 homes to H12 99 xenograft tumor after systemic delivery.
H1299 tumor bearing nude mice ( N=4 ) were injected I.V. with MGS4_V8 or MGS4_V6 conjugated to NIR dye Alexa Fluor 750. At 24, 48, and 72 hours post injection, mice were anesthetized and imaged on an IVIS® (Perkin E lme r ) to measure total radiant efficiency in each tumor. MGS4_V8 accumulates in tumor ≈3-fold better than control peptide, MGS4_V6. MGS4_V6 accumulation is statistically no different than […]
untreated tumo rs. […]
A standard curve was generated using Quantum ™ Alexa Fluor 647 microspheres (Bangs Laboratory, Fishers, IN). A representative linear regression showing the correlation of molecule equivalents soluble fluorophores (MESF) vs the mean fluorescence intensity (MFI) is shown. The MFI is determined at 50% […]
Supplemental Figure 7. Example of flow cytometry data: MGS4_V10 Uptake on H1993 Cells .
The gating strategy, cell population data , and MFI determination for an example binding experiment is shown. Cells were gated by forward and side scatter to exclude nonviable cells or cell clusters as shown.
Individual dot plots and histograms are shown for a concentration range of 0.1 nM – 50 nM. The MFI is determined at 50% peak height. Molecules internalized per cell were determined by the standard curve relating MESF to MFI and divided by the number dye molecules/MGS conjugate.

[2] = system: H1299 cells; assay: Cell binding and internalization by flow cytometry, relative (normalized) uptake of peptide-streptavidin-phycoerythrin; assay type: cell-based, human
Method: MGS4 was initially selected by phage display biopanning of a peptide library on live cells. […] As such, multivalent binding is often required. To ascertain whether multivalent binding is required for MGS4 internalization, monomeric (MGS4_V2) and tetrameric (MGS4_V1) peptides were synthesized and labeled as described (Supplementary Figure 1). After incubation of varying peptide concentrations on live cells, surface-bound peptide was removed by low pH washes, as well as trypsinization. Relative internalization was measured by flow cytometry to determine an EC50 value which represents the concentration of peptide producing half-maximal internalization. This measurement is dependent on the affinity of the peptide for its cellular target and the rate of internalization. This is a more accurate representation of the biological situation and useful in evaluating the peptides as drug delivery agents. As expected for receptor-mediated endocytosis, uptake of MGS4 is saturable with increasing concentration.
Fig. 1 Monomeric and tetrameric MGS4 have similar binding, internalization and subcellular location. a Binding and internalization of tetrameric MGS4_V1 and monomeric MGS4_V2 on live H1299 cells in culture. Cells were incubated with the peptide conjugated to streptavidin-phycoerythrin for 1 h at 37 °C. Non-internalized peptide was removed and the cells were analyzed by flow cytometry. b H1299 cells were incubated with MGS4_V1 or MGS4_V2 conjugated to streptavidin-Alexa Fluor 555 (red) for 1 h, washed, fixed and counterstained with WGA-Alexa Fluor 488 (green, cell membrane) and DAPI (blue, nuclei) and analyzed by fluorescence microscopy. The scale bar represents 20 µm. MGS4_V1 and MGS4_V2 internalize to a similar degree and localize to a similar destination. c Truncated monomeric MGS4 peptides have similar EC50 as the parental full-length peptide. Individual measurements are shown. The mean is shown as an “X” and black error bars represent standard error for a minimum of three experimental replicates (SEM). All original binding data and nonlinear regression analysis of the data are included in the supplementary materials.
Biotinylated peptide was conjugated to streptavidin-R-phycoerythrin or streptavidin-Alexa Fluor 647 (1:1 molar ratio) for 30 min. The open binding sites on streptavidin were quenched with RPMI 1640 and diluted to the indicated concentration. Tumor cells were grown to 90% confluency in a 12 well plate, then incubated with 500 µl peptide-dye conjugate at 37 °C. After 1 h, peptide was removed, and the cells were washed 3x with PBS (137 mM NaCl, 2.7 mM KCl, 10 mM Na2HPO4, 1.8 mM KH2PO4, pH 7.4), 2x with 0.1 M HCl-glycine pH2.2 in 0.9% NaCl, and 1x PBS rinse. Cells were removed by trypsinization. Flow cytometry was performed on a BD FACSCelesta, and data were analyzed on Flowing software. Cells were gated based on the forward and side scatter to include only viable cells and a minimum of 10,000 events were counted. A region containing <5% of the cells in the negative control was established, and relative peptide uptake by the mean fluorescence intensity of that population. For absolute peptide uptake per cell, a standard curve was generated using Quantum™ Alexa Fluor 647 microspheres (Bangs Laboratory, Fishers, IN). A representative linear regression showing the correlation of molecule equivalents soluble fluorophores (MESF) vs the mean fluorescence intensity (MFI) is shown in Supplemental Figure 6. Cells were gated based on the forward and side scatter to include only viable cells and a minimum of 10,000 events were counted. MFI was determined at 50% at peak height. Molecules internalized per cell were determined by the standard curve relating MESF to MFI and divided by the number dye molecules/MGS conjugate. An example is shown in supplemental Figure 7. GraphPad Prism® was used for non-linear regression curve fitting to calculate an EC50. […]

Row | Compound | Total Radiant Efficiency ([1]; 24 h, Mouse 1) | Total Radiant Efficiency ([1]; 24 h, Mouse 2) | Total Radiant Efficiency ([1]; 24 h, Mouse 3) | Total Radiant Efficiency ([1]; 24 h, Mouse 4) | Total Radiant Efficiency ([1]; 48 h, Mouse 1) | Total Radiant Efficiency ([1]; 48 h, Mouse 2) | Total Radiant Efficiency ([1]; 48 h, Mouse 3) | Total Radiant Efficiency ([1]; 48 h, Mouse 4) | Total Radiant Efficiency ([1]; 72 h, Mouse 1) | Total Radiant Efficiency ([1]; 72 h, Mouse 2) | Total Radiant Efficiency ([1]; 72 h, Mouse 3) | Total Radiant Efficiency ([1]; 72 h, Mouse 4) | fold tumor accumulation versus control peptide MGS4_V6 ([1]; H1299 tumors, 24-72 h, Alexa Fluor 750 conjugate, N=4) | Bmax (best-fit) ([2]; Supplementary Table 2, normalized binding) | EC50 (nM) ([2]; H1299 cells, 1 h at 37 °C, normalized uptake, one-site specific binding fit, Average ± SEM, minimum 3 replicates)
1 | CC(=O)N[C@@H](Cc1ccccc1)C(=O)N[C@@H](Cc1c[nH]cn1)C(=O)N[C@@H](C)C(=O)N[C@H](C(=O)N1CCC[C@H]1C(=O)N[C@@H](CCC(N)=O)C(=O)N[C@@H](CO)C(=O)N[C@@H](Cc1ccccc1)C(=O)N[C@@H](Cc1ccc(O)cc1)C(=O)N[C@H](C(=O)NCCOCCOCCOCCOCCOCCOCCOCCOCCOCCOCCOCCOCCC(=O)N[C@@H](CCC(=O)NCCCOCCOCCOCCCNC(=O)CCCC[C@@H]1SC[C@@H]2NC(=O)N[C@@H]21)C(N)=O)[C@@H](C)O)C(C)C [MGS4_V8] (Ac-FHAVPQSFYT[PEG12]E(X1)-NH2) | 1.32e+009 | 1.83e+009 | 9.57e+008 | 2.96e+009 | 9.13e+008 | 9.76e+008 | 7.72e+008 | 1.71e+009 | 9.42e+008 | 7.37e+008 | 1.06e+009 | 1.35e+009 | ≈ 3 fold | 1.423 | 
2 | *HAVPQSFYT** [MGS4_V6] | 7.74e+008 | 4.6e+008 | 7.58e+008 | 3.13e+008 | 5.44e+008 | 3.19e+008 | 3.39e+008 | 3.19e+008 | 5.46e+008 | 3.28e+008 | 3.61e+008 | 4.28e+008 |  |  | Not Detected^2
